Target: human NaV subtype, like NaV 1.7 (Homo sapiens, UniProt Q15858)
Experiment: E-VIPR optical membrane potential assay with electrical stimulation
Type: cell-based
Conditions: active against one or more sodium channels; Table 3 does not name the assay or NaV subtype; read-out: Binned Activity Data (IC50)

Chain of human NaV subtype, like NaV 1.7 (Q15858 whole entry): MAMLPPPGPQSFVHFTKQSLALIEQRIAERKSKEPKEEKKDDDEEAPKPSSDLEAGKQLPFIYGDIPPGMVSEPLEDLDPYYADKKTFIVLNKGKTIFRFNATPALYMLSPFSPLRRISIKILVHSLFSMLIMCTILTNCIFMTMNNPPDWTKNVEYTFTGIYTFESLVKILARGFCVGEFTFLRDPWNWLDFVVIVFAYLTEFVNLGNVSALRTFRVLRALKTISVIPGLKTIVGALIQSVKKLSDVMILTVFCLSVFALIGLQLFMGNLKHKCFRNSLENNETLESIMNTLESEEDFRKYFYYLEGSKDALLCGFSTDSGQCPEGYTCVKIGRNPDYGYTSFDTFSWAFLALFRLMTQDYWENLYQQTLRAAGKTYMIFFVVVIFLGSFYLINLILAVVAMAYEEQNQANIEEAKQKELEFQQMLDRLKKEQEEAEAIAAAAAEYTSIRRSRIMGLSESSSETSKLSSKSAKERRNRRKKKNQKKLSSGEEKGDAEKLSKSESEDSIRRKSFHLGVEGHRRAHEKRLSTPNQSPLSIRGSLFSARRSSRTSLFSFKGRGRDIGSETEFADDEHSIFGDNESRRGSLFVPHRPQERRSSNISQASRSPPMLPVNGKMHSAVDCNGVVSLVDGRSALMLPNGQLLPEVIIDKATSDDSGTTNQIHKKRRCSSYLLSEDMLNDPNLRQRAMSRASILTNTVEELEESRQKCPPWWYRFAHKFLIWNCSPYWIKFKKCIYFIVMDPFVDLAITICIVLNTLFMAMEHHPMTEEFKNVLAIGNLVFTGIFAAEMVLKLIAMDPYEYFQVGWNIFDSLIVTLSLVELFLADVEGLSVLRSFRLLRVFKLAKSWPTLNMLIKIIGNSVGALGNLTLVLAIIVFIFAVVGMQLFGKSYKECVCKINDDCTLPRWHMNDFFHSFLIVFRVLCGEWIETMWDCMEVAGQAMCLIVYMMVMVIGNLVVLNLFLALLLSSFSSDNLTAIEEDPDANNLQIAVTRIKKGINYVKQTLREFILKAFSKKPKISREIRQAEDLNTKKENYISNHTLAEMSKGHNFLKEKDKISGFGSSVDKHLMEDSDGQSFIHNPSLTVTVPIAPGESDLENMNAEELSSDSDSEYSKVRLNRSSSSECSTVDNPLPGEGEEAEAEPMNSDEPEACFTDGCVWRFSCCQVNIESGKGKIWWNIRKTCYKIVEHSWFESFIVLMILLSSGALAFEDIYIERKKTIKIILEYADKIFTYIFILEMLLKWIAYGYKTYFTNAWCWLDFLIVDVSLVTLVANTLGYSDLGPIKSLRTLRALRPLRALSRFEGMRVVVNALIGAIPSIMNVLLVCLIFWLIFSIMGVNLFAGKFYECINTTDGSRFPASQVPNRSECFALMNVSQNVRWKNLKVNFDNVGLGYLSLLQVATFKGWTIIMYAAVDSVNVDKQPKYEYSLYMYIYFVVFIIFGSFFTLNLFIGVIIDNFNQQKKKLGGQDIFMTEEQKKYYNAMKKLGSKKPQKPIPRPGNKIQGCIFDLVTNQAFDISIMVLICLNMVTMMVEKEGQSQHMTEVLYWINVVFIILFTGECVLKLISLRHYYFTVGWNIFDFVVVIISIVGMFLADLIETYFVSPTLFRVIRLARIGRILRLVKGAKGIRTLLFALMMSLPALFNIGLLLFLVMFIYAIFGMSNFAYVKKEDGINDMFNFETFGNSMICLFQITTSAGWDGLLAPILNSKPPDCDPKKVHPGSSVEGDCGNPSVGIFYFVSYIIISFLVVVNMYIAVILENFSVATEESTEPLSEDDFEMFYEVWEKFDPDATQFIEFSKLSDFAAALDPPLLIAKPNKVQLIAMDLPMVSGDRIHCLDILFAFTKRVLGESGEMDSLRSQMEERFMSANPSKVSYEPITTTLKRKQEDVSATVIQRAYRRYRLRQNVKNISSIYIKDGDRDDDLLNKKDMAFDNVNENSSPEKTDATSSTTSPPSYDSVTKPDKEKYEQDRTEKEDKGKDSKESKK

Row | SMILES | IC50 [nM]
1 | Cc1cc(C(=O)N2CCC3(CC2)c2ccc(C(F)(F)F)n2CCN3C)ccc1S(=O)(=O)NC(C)C [Compound 450] | ≤ 2000
2 | CC(C)Oc1ccc(C(=O)N2CCC3(CC2)c2ccc(C(F)(F)C(F)(F)F)n2CCN3C)cc1CO [Compound 461] | ≤ 2000
3 | COc1cc(C(=O)N2CCC3(CC2)c2ccc(C(F)(F)F)n2CCN3C(C)=O)ccc1OC(C)C [Compound 170] | > 5000
4 | CN1CCn2c(C(=O)C(F)(F)F)ccc2C12CCN(C(=O)c1ccc(F)c(O)c1)CC2 [Compound 720] | > 5000
5 | COc1ccc(C(=O)N2CCC3(CC2)c2ccc(C(=O)C(C)(C)C)n2CCN3C)c(F)c1 [Compound 578] | 2000 to 5000
6 | CCNc1ncccc1C(=O)N1CCC2(CC1)c1ccc(C(F)(F)F)n1CCN2C [Compound 465] | > 5000
7 | COc1cc(C(=O)N2CCC3(CC2)c2ccc(C(C)=O)n2CCN3C)ccc1COCC(F)(F)F [Compound 470] | ≤ 2000
8 | COC(=O)N1CCn2c(C(F)(F)F)ccc2C12CCN(C(=O)c1ccc(OC(C)C)c(OC)c1)CC2 [Compound 259] | ≤ 2000
9 | CC(C)Oc1ccc(C(=O)N2CCC3(CC2)NC(C)(C)Cn2c(C(=O)C(F)(F)F)ccc23)cc1F [Compound 232] | ≤ 2000
10 | CN1CCn2c(Cl)ccc2C12CCN(C(=O)c1ccc(-c3ccccc3)cc1)CC2 [Compound 104] | > 5000
11 | CC(C)Oc1ccc(C(=O)N2CCC3(CC2)c2ccc(C(=O)C(F)(F)F)n2C(C)(C)CN3C)cc1F [Compound 16] | 2000 to 5000
12 | COc1ccc(C(=O)N2CCC3(CC2)c2ccc(C(=O)C(F)(F)F)n2CCN3C)cc1C(F)(F)F [Compound 459] | ≤ 2000
13 | COc1cc(C(=O)N2CCC3(CC2)N[C@H]2CCCC[C@H]2n2cccc23)ccc1C(C)(C)C [Compound 110] | ≤ 2000
14 | CCc1ccc(C(=O)N2CCC3(CC2)c2ccc(Cl)n2CCN3C)cc1OC [Compound 512] | 2000 to 5000
15 | Cc1cc(C(=O)N2CCC3(CC2)c2ccc(Cl)n2CCN3C)ccc1OCC(C)(C)O [Compound 531] | ≤ 2000
16 | CC1(C)Cn2c(C(=O)C(F)(F)F)ccc2C2(CCN(C(=O)c3ccc(COCC(F)(F)F)cc3)CC2)N1 [Compound 41] | ≤ 2000
17 | COc1ccc(C(=O)N2CCC3(CC2)c2cc(C(=O)C(F)(F)F)cn2C(C)(C)CN3C)cc1Cl [Compound 529] | > 5000
18 | Cc1cc(C(=O)N2CCC3(CC2)c2ccc(C(F)(F)F)n2CCN3C2CC2)ccc1OCC(C)(C)O [Compound 332] | ≤ 2000
19 | COc1ccc(C(=O)N2CCC3(CC2)c2ccc(C(=O)c4ccccc4)n2CCN3C)cc1C(F)(F)F [Compound 180] | ≤ 2000
20 | CCCOc1ccc(C(=O)N2CCC3(CC2)c2ccc(C(C)=O)n2CCN3C)cc1 [Compound 507] | > 5000
21 | CN1CCn2c(C(F)(F)F)ccc2C12CCN(C(=O)c1ccc(C(C)(C)O)cc1)CC2 [Compound 84] | ≤ 2000
22 | COc1cc(C(=O)N2CCC3(CC2)c2ccc(C(C)=O)n2CCN3C)ccc1OCC(C)C [Compound 230] | ≤ 2000
23 | CC(C)Cc1ccc(C(=O)N2CCC3(CC2)c2ccc(C(=O)C(F)(F)F)n2CCN3C)cc1 [Compound 339] | ≤ 2000
24 | CCOc1ccc(C(=O)N2CCC3(CC2)c2c(Cl)cc(C(F)(F)F)n2CCN3C)cc1C [Compound 420] | ≤ 2000
25 | COc1cc(C(=O)N2CCC3(CC2)NC(C)(C)Cn2c(C(C)=O)ccc23)ccc1C(C)(C)C [Compound 353] | ≤ 2000

Row | SMILES | IC50 [nM]
26 | COc1cc(C(=O)N2CCC3(CC2)c2ccc(C(F)(F)F)n2C[C@H](C)N3C)ccc1OC(C)C [Compound 29] | ≤ 2000
27 | CN1CCn2c(C(F)(F)F)ccc2C12CCN(C(=O)c1ccc(OCC(C)(C)O)cc1)CC2 [Compound 637] | 2000 to 5000
28 | Cc1nc(C(=O)N2CCC3(CC2)c2ccc(C(=O)C(F)(F)F)n2CCN3C)ccc1O [Compound 322] | ≤ 2000
29 | CC(C)Oc1ccc(C(=O)N2CCC3(CC2)N[C@H](C)Cn2c(C(F)(F)F)ccc23)cc1F [Compound 57] | ≤ 2000
30 | CN1CCn2c(C(=O)C3(C)CC3)ccc2C12CCN(C(=O)c1ccc(O)c(C(F)(F)F)c1)CC2 [Compound 685] | ≤ 2000
31 | CCn1cnc(-c2ccc(C(=O)N3CCC4(CC3)c3ccc(C(=O)C(F)(F)F)n3CCN4C)cc2C)c1 [Compound 489] | ≤ 2000
32 | CCCOc1ccc(C(=O)N2CCC3(CC2)NCCn2c(C(F)(F)F)ccc23)cc1OC [Compound 550] | ≤ 2000
33 | Cc1cc(C(=O)N2CCC3(CC2)c2ccc(C(=O)C4(C)CC4)n2CCN3C)ccc1O [Compound 161] | ≤ 2000
34 | CC[C@@H](C)Oc1ccc(C(=O)N2CCC3(CC2)c2c(F)cc(C(F)(F)F)n2CCN3C)cc1OC [Compound 513] | ≤ 2000
35 | CN1CCn2c(C(=O)C(F)(F)F)ccc2C12CCN(C(=O)c1ccc(S(=O)(=O)C(C)(C)C)cc1)CC2 [Compound 502] | > 5000
36 | CC(C)Cc1ccc(C(=O)N2CCC3(CC2)c2ccc(Cl)n2CCN3C)cc1 [Compound 73] | 2000 to 5000
37 | COCCOc1ccc(C(=O)N2CCC3(CC2)c2c(F)cc(C(F)(F)F)n2CCN3C)cc1OC [Compound 187] | ≤ 2000
38 | COc1ccc(C(=O)N2CCC3(CC2)NCC(C)n2c(C(=O)C(F)(F)F)ccc23)nc1C (centres unmarked) [Compound 503] | ≤ 2000
39 | CCOc1ccc(C(=O)N2CCC3(CC2)c2ccc(C(=O)C(F)(F)F)n2CCN3C)cc1F [Compound 446] | 2000 to 5000
40 | CCCCOc1ccc(C(=O)N2CCC3(CC2)c2ccc(C(C)=O)n2CCN3C)cc1 [Compound 34] | ≤ 2000
41 | COc1cc(C(=O)N2CCC3(CC2)c2ccc(C(F)(F)F)n2CCN3C)ccc1O [Compound 407] | 2000 to 5000
42 | CCCc1ccc(C(=O)N2CCC3(CC2)c2ccc(C(=O)C(F)(F)F)n2CCN3C)cc1 [Compound 87] | ≤ 2000
43 | COc1cc(C(=O)N2CCC3(CC2)c2c(Cl)cc(C(F)(F)F)n2CCN3C)ccc1OCC(C)(C)F [Compound 258] | ≤ 2000
44 | CC(=O)c1ccc2n1C(C)(C)CN(C)C21CCN(C(=O)c2ccc(OC(C)C)c(C(F)(F)F)c2)CC1 [Compound 536] | 2000 to 5000
45 | CC(C)Oc1ccc(C(=O)N2CCC3(CC2)c2cc(C(=O)C(F)(F)F)cn2C(C)(C)CN3C)c(F)c1 [Compound 52] | > 5000
46 | CN1CCn2c(C(F)(F)F)ccc2C12CCN(C(=O)c1ccc(OC(C)(C)C)cn1)CC2 [Compound 196] | > 5000
47 | CN1CCn2c(C(=O)C(F)(F)F)ccc2C12CCN(C(=O)c1ccc(CC(C)(C)O)cc1)CC2 [Compound 688] | ≤ 2000
48 | CC1Cn2c(C(F)(F)F)ccc2C2(CCN(C(=O)c3ccc(OC(C)C)cc3F)CC2)N1 (centres unmarked) [Compound 427] | ≤ 2000
49 | Cc1cc(C(=O)N2CCC3(CC2)c2c(F)cc(C(F)(F)F)n2CCN3C)ccc1C(C)(C)O [Compound 262] | ≤ 2000
50 | CCNS(=O)(=O)c1ccc(C(=O)N2CCC3(CC2)c2ccc(C(F)(F)F)n2CCN3C)cc1C [Compound 343] | ≤ 2000

Row | SMILES | IC50 [nM]
51 | CN1CCn2c(Cl)ccc2C12CCN(C(=O)c1cccc3cccnc13)CC2 [Compound 679] | 2000 to 5000
52 | CN(C)c1ncccc1C(=O)N1CCC2(CC1)c1ccc(C(F)(F)F)n1CCN2C [Compound 652] | > 5000
53 | CN1CCn2c(C(=O)C3(C)CC3)ccc2C12CCN(C(=O)c1ccc(COCCC(F)(F)F)cc1)CC2 [Compound 585] | ≤ 2000
54 | COc1cc(C(=O)N2CCC3(CC2)NC(C)(C)Cn2cc(C(C)=O)cc23)ccc1C(C)(C)C [Compound 364] | > 5000
55 | CCCCc1ccc(C(=O)N2CCC3(CC2)c2ccc(C(C)=O)n2CCN3C)cc1 [Compound 189] | ≤ 2000
56 | CC(=O)c1ccc2n1CCN(C)C21CCN(C(=O)c2ccc(C3CC3)cc2)CC1 [Compound 425] | > 5000
57 | CN1CCn2c(C(F)(F)F)cc(Cl)c2C12CCN(C(=O)c1ccc(C(C)(C)O)c(F)c1)CC2 [Compound 95] | ≤ 2000
58 | CN1CCn2c(C(=O)C(F)(F)F)ccc2C12CCN(C(=O)c1ccc(-c3ccccc3)c(O)c1)CC2 [Compound 287] | 2000 to 5000
59 | CN1CCn2c(C(F)(F)F)ccc2C12CCN(C(=O)c1ccc(C(C)(C)O)c(F)c1)CC2 [Compound 370] | ≤ 2000
60 | COc1ccc(C(=O)N2CCC3(CC2)c2ccc(C(=O)C(F)(F)F)n2C(C)(C)CN3C)cc1C [Compound 223] | 2000 to 5000
61 | CC(=O)c1ccc2n1CCN(C)C21CCN(C(=O)c2ccc(S(=O)(=O)NC3CC3)cc2)CC1 [Compound 532] | > 5000
62 | CCC(=O)N1CCn2c(C(F)(F)F)ccc2C12CCN(C(=O)c1ccc(OC(C)C)c(OC)c1)CC2 [Compound 428] | ≤ 2000
63 | COc1cc(C(=O)N2CCC3(CC2)c2ccc(C(F)(F)C(F)(F)F)n2CCN3C)ccc1OC(C)(C)C [Compound 299] | ≤ 2000
64 | Cc1cc(C(=O)N2CCC3(CC2)c2ccc(C(F)(F)F)n2CCN3C)ccc1C1COC1 [Compound 658] | ≤ 2000
65 | Cc1cc(C(F)F)n2ncc(C(=O)N3CCC4(CC3)NCCn3c(C(F)(F)F)ccc34)c2n1 [Compound 159] | 2000 to 5000
66 | CN1CCn2c(Cl)ccc2C12CCN(C(=O)c1ccc(C(C)(C)O)c(F)c1)CC2 [Compound 387] | ≤ 2000
67 | Cc1cc(C(=O)N2CCC3(CC2)c2ccc(C#N)n2CCN3C)ccc1OC(C)C [Compound 394] | 2000 to 5000
68 | Cc1cc(C(=O)N2CCC3(CC2)c2ccc(C(=O)C(C)(C)C)n2CCN3C)ccc1OC(C)C [Compound 199] | ≤ 2000
69 | CC(C)COc1ccc(C(=O)N2CCC3(CC2)c2ccc(C(=O)C(F)(F)F)n2CCN3C)nc1 [Compound 712] | ≤ 2000
70 | CC(C)Oc1ccc(C(=O)N2CCC3(CC2)c2ccc(C(F)(F)F)n2C[C@H](C)N3C)c(F)c1 [Compound 152] | ≤ 2000
71 | CCc1ccc(C(=O)N2CCC3(CC2)c2ccc(C(=O)C(F)(F)F)n2CCN3C)cc1OC [Compound 537] | ≤ 2000
72 | CC(=O)c1ccc2n1C(C)(C)CN(C)C21CCN(C(=O)c2ccc(OC(C)C)c(C)c2)CC1 [Compound 174] | ≤ 2000
73 | CC1(C)Cn2c(C(=O)C(F)(F)F)ccc2C2(CCN(C(=O)c3ccc(S(=O)(=O)NC4CC4)cc3)CC2)N1 [Compound 442] | ≤ 2000
74 | COc1cc(C(=O)N2CCC3(CC2)c2c(F)cc(C(F)(F)F)n2CCN3C)ccc1OC(C)(C)C [Compound 483] | ≤ 2000
